Experimental data published in patent US9302999B2, “Substituted triazoles as herbicides” (E. I. DU PONT DE NEMOURS AND COMPANY, priority 2012, dated 2016).

Key:
Type in all cases: in vivo
[1] = system: morningglory (Ipomoea spp.); assay: Test A pre-/postemergence: morningglory; settings: for Morningglory plant response rating: visual rating on 0 to 100 scale (0 no effect, 100 complete control), approximately ten days
Outline: (§1)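 Soil medium was loam blended with sand; treatments pre- and postemergence were applied concurrently, postemergence at one- to two-leaf stage. Approximately ten days in greenhouse preceded visual comparison with untreated controls, scored 0 (no effect) to 100 (complete control).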

[2] = system: wheat (Triticum aestivum); assay: Test A pre-/postemergence: wheat; settings: for Wheat plant response rating: visual rating on 0 to 100 scale (0 no effect, 100 complete control), approximately ten days
Outline: as §1

[3] = system: corn (Zea mays); assay: Test A pre-/postemergence: corn; settings: for Corn plant response rating: Postemergence; for Plant response rating, Corn: Preemergence
Outline: as §1

[4] = system: ryegrass, Italian (Italian ryegrass, Lolium multiflorum); assay: Test C pre-/postemergence: ryegrass, Italian
Outline: (§2)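 Preemergence on seeds in loam/sand, postemergence on 2–18 cm (1–4-leaf) plants in peat-based medium; compounds in non-phytotoxic solvent with surfactant. After 13–15 days in greenhouse, visual rating versus controls, 0 (no effect) to 100 (complete control).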

[5] = system: galium (catchweed bedstraw, Galium aparine); assay: Test C pre-/postemergence: galium
Outline: as §2

[6] = system: large crabgrass (Digitaria sanguinalis); assay: Test C pre-/postemergence: large crabgrass
Outline: as §2

[7] = system: foxtail, giant (giant foxtail, Setaria faberii); assay: Test C pre-/postemergence: foxtail, giant
Outline: as §2

[8] = system: johnsongrass (Sorghum halepense); assay: Test C pre-/postemergence: johnsongrass
Outline: as §2

[9] = system: kochia (Kochia scoparia); assay: Test C pre-/postemergence: kochia
Outline: as §2

[10] = system: pigweed (Amaranthus retroflexus); assay: Test C pre-/postemergence: pigweed
Outline: as §2

[11] = system: ragweed (common ragweed, Ambrosia elation); assay: Test C pre-/postemergence: ragweed
Outline: as §2

[12] = system: velvetleaf (Abutilon theophrasti); assay: Test C pre-/postemergence: velvetleaf
Outline: as §2

[13] = Postemergence, 125 g ai/ha, 0 to 100 scale, 0 is no effect, 100 is complete control
[14] = Preemergence, 125 g ai/ha, 0 to 100 scale where 0 is no effect and 100 is complete control
[15] = Preemergence, 500 g ai/ha, 0 to 100 scale (0 no effect, 100 complete control)
[16] = 125 g ai/ha, 0 to 100 scale, 0 is no effect, 100 is complete control
[17] = 500 g ai/ha, visual rating on 0 to 100 scale (0 no effect, 100 complete control), approximately ten days
[18] = 125 g ai/ha, 0 to 100 scale where 0 is no effect and 100 is complete control
[19] = 500 g ai/ha, 0 to 100 scale (0 no effect, 100 complete control)
[20] = Postemergence, 31 g ai/ha, scale 0 to 100 (0 no effect, 100 complete control)
[21] = Postemergence, 62 g ai/ha, scale 0 to 100 (0 no effect, 100 complete control)
[22] = Postemergence, 125 g ai/ha, scale 0 to 100, 0 no effect, 100 complete control
[23] = Postemergence, 250 g ai/ha, scale 0 to 100
[24] = Preemergence, 31 g ai/ha, scale of 0 to 100, 0 is no effect, 100 is complete control
[25] = Preemergence, 62 g ai/ha, scale of 0 to 100, 0 is no effect, 100 is complete control
[26] = Preemergence, 125 g ai/ha, scale 0 to 100, 0 no effect, 100 complete control
[27] = Preemergence, 250 g ai/ha, scale 0 to 100, 0 no effect, 100 complete control

Cc1nn(-c2ccc(F)c(F)c2)nc1Oc1ccnc(C(F)(F)F)c1 [Compound 145]
10: Plant response rating, Morningglory [1, 14] | Plant response rating, Corn [3, 18] | Plant response rating, Johnsongrass [8, 20] | Plant response rating, Ragweed [11, 25] | Plant response rating, Velvetleaf [12, 25]
95: Plant response rating, Galium [5, 23] | Plant response rating, Crabgrass, Large [6, 23] | Plant response rating, Foxtail, Giant [7, 24] | Plant response rating, Kochia [9, 23]
60: Plant response rating, Morningglory [1, 15] | Plant response rating, Wheat [2, 15] | Plant response rating, Galium [5, 24] | Plant response rating, Ragweed [11, 20] | Plant response rating, Velvetleaf [12, 23]
30: Plant response rating, Ryegrass, Italian [4, 21]
80: Plant response rating, Galium [5, 20] | Plant response rating, Galium [5, 21]
35: Plant response rating, Ryegrass, Italian [4, 25] | Plant response rating, Johnsongrass [8, 25] | Plant response rating, Velvetleaf [12, 20] | Plant response rating, Velvetleaf [12, 21]
20: Plant response rating, Wheat [2, 13] | Plant response rating, Wheat [2, 14] | Plant response rating, Ryegrass, Italian [4, 20] | Plant response rating, Foxtail, Giant [7, 21] | Plant response rating, Johnsongrass [8, 21]
40: Corn plant response rating [3, 16] | Plant response rating, Corn [3, 19] | Plant response rating, Ryegrass, Italian [4, 22] | Plant response rating, Ragweed [11, 26]
100: Plant response rating, Morningglory [1, 13] | Morningglory plant response rating ([1]; Postemergence, 500 g ai/ha) | Plant response rating, Galium [5, 26] | Plant response rating, Galium [5, 27] | Plant response rating, Crabgrass, Large [6, 25] | Plant response rating, Crabgrass, Large [6, 26] | Plant response rating, Crabgrass, Large [6, 27] | Plant response rating, Foxtail, Giant [7, 25] | Plant response rating, Foxtail, Giant [7, 26] | Plant response rating, Foxtail, Giant [7, 27] | Plant response rating, Johnsongrass [8, 26] | Plant response rating, Johnsongrass [8, 27] | Plant response rating, Pigweed [10, 27]
75: Plant response rating, Johnsongrass [8, 23] | Plant response rating, Velvetleaf [12, 26]
98: Plant response rating, Galium [5, 25] | Plant response rating, Crabgrass, Large [6, 24] | Plant response rating, Kochia [9, 26] | Plant response rating, Kochia [9, 27] | Plant response rating, Pigweed [10, 21] | Plant response rating, Pigweed [10, 22] | Plant response rating, Pigweed [10, 23] | Plant response rating, Pigweed [10, 25] | Plant response rating, Pigweed [10, 26]
90: Corn plant response rating [3, 17] | Plant response rating, Ryegrass, Italian [4, 26] | Plant response rating, Ryegrass, Italian [4, 27] | Plant response rating, Galium [5, 22] | Plant response rating, Kochia [9, 22] | Plant response rating, Kochia [9, 25] | Plant response rating, Pigweed [10, 24]
0: Plant response rating, Johnsongrass [8, 24] | Plant response rating, Ragweed [11, 24] | Plant response rating, Velvetleaf [12, 24]
5: Plant response rating, Ryegrass, Italian [4, 24]
15: Plant response rating, Foxtail, Giant [7, 20]
70: Plant response rating, Johnsongrass [8, 22] | Plant response rating, Ragweed [11, 22] | Plant response rating, Ragweed [11, 23]
55: Plant response rating, Ragweed [11, 27]
50: Wheat plant response rating ([2]; Postemergence, 500 g ai/ha) | Plant response rating, Ryegrass, Italian [4, 23] | Plant response rating, Crabgrass, Large [6, 21] | Plant response rating, Foxtail, Giant [7, 22] | Plant response rating, Kochia [9, 24] | Plant response rating, Velvetleaf [12, 22]
25: Plant response rating, Crabgrass, Large [6, 20]
85: Plant response rating, Crabgrass, Large [6, 22] | Plant response rating, Foxtail, Giant [7, 23] | Plant response rating, Kochia [9, 20] | Plant response rating, Kochia [9, 21] | Plant response rating, Pigweed [10, 20] | Plant response rating, Velvetleaf [12, 27]

Cc1nn(-c2ccc(F)c(C(F)(F)F)c2)nc1Oc1ccnc(C(F)(F)F)c1 [Compound 147]
50: Wheat plant response rating ([2]; Postemergence, 500 g ai/ha) | Plant response rating, Wheat [2, 15] | Plant response rating, Ryegrass, Italian [4, 25]
35: Plant response rating, Kochia [9, 24]
70: Plant response rating, Ragweed [11, 26]
40: Corn plant response rating [3, 17] | Plant response rating, Johnsongrass [8, 24] | Plant response rating, Kochia [9, 25] | Plant response rating, Ragweed [11, 25]
90: Plant response rating, Morningglory [1, 13] | Morningglory plant response rating ([1]; Postemergence, 500 g ai/ha)
25: Plant response rating, Ragweed [11, 24] | Plant response rating, Velvetleaf [12, 24]
20: Plant response rating, Wheat [2, 13]
10: Plant response rating, Corn [3, 18] | Plant response rating, Ryegrass, Italian [4, 24]
98: Plant response rating, Crabgrass, Large [6, 24] | Plant response rating, Foxtail, Giant [7, 25] | Plant response rating, Johnsongrass [8, 27]
60: Plant response rating, Velvetleaf [12, 26]
85: Plant response rating, Ryegrass, Italian [4, 26] | Plant response rating, Foxtail, Giant [7, 24] | Plant response rating, Kochia [9, 27]
100: Plant response rating, Galium [5, 24] | Plant response rating, Galium [5, 25] | Plant response rating, Galium [5, 26] | Plant response rating, Galium [5, 27] | Plant response rating, Crabgrass, Large [6, 25] | Plant response rating, Crabgrass, Large [6, 26] | Plant response rating, Crabgrass, Large [6, 27] | Plant response rating, Foxtail, Giant [7, 26] | Plant response rating, Foxtail, Giant [7, 27] | Plant response rating, Pigweed [10, 24] | Plant response rating, Pigweed [10, 25] | Plant response rating, Pigweed [10, 26] | Plant response rating, Pigweed [10, 27] | Plant response rating, Velvetleaf [12, 27]
55: Plant response rating, Johnsongrass [8, 25] | Plant response rating, Velvetleaf [12, 25]
95: Plant response rating, Ryegrass, Italian [4, 27] | Plant response rating, Johnsongrass [8, 26]
80: Plant response rating, Morningglory [1, 15] | Plant response rating, Kochia [9, 26] | Plant response rating, Ragweed [11, 27]
30: Plant response rating, Wheat [2, 14] | Corn plant response rating [3, 16] | Plant response rating, Corn [3, 19]
